Test results: patent US9995734B2, “Human T cell line assay for evaluating the immunologic identity of glatiramer acetate preparations” (Mylan Inc., priority 2013, dated 2018)
Values joined by “and” are separate entries in the source; they are usually repeats but may differ in a detail not shown here. Equal entries are not always repeated.

Tested on: Donor 1 COP T-Cell Lines
Assay: Multiplex bead cytokine assay (FlowCytoMix), Donor 1 COP T-cell lines
Type: cell-based, human
Description: Culture medium was removed from cultures prepared as for proliferation assay and utilized to measure cytokine production. In most cases culture medium was collected 18-24 hours after mixing T-cells, APC, and stimulating antigen. Cytokine production was measured by ELISA or bead assay. For measuring cytokine production, 100-150 μL culture medium (100 μL if culture was to be continued, otherwise 150 μL) was removed from each well. In some cases, the culture was continued 48 hours, for a total of 72 hours of culture, and the proliferative response measured.
The concentration of multiple cytokines was measured simultaneously using FlowCytoMix™ kits (eBioscience, San Diego Calif.). These are fluorescent bead based assays consisting of beads conjugated to anti cytokine antibodies. Beads specific for each cytokine are distinguished by size and fluorescence at 670 run. Cytokine bound to each bead is detected using a phycoerythrin conjugated antibody so that the fluorescence at 585 nm reflects the concentration of cytokine in the sample. Two kits were utilized which measured different cytokine panels. The TH1/TH2 kit measures IFN-γ, IL-1β, IL-2, IL-4, IL-5, IL-6, IL-8, IL-10, IL-12p70, TNF-α (TNF) and TNF-β (LT). The TH1/TH2/TH9/TH17/TH22 kit measures […], IL-1β, IL-2, IL-4, IL-5, IL-6, IL-9, IL-10, IL-12p70, IL-13, IL-17, IL-22, and TNF-α (TNF). Both kits were used following the manufacturer's instructions.
IL-12p70, IFN-γ, IL-2, IL-10, IL-8, IL-6, IL-5, IL-4, IL-1β, TNF-α (TNF), and TNF-β (LT) secretion were measured in response to stimulation with 1, 3, or 10 μg/mL GMA, or 1, 3, or 10 μg/mL COP, as well as a no-antigen control and an MBP control, in the presence of autologous EBV-transformed B-LCL.

[1] = 222-1C5, MBP control antigen, 24 hours after Day 56 restimulation
[2] = 222-2B8, MBP control antigen, 24 hours after Day 56 restimulation
[3] = 222-2E1, MBP control antigen, 24 hours after Day 56 restimulation
[4] = 222-B11 (so in the source), MBP control antigen, 24 hours after Day 56 restimulation
[5] = 222-1C5, 1 μg/mL, 24 hours after Day 56 restimulation
[6] = 222-1C5, 3 μg/mL, 24 hours after Day 56 restimulation
[7] = 222-1C5, 10 μg/mL, 24 hours after Day 56 restimulation
[8] = 222-1C5, 10 μg/mL, Day 34 supernatants
[9] = 222-1H12, 10 μg/mL, Day 34 supernatants
[10] = 222-2B8, 1 μg/mL, 24 hours after Day 56 restimulation
[11] = 222-2B8, 3 μg/mL, 24 hours after Day 56 restimulation
[12] = 222-2B8, 10 μg/mL, 24 hours after Day 56 restimulation
[13] = 222-2D2, 10 μg/mL, Day 34 supernatants
[14] = 222-2D8, 10 μg/mL, Day 34 supernatants
[15] = 222-2E1, 1 μg/mL, 24 hours after Day 56 restimulation
[16] = 222-2E1, 3 μg/mL, 24 hours after Day 56 restimulation
[17] = 222-2E1, 10 μg/mL, 24 hours after Day 56 restimulation
[18] = 222-B11 (so in the source), 1 μg/mL, 24 hours after Day 56 restimulation
[19] = 222-B11 (so in the source), 3 μg/mL, 24 hours after Day 56 restimulation
[20] = 222-B11 (so in the source), 10 μg/mL, 24 hours after Day 56 restimulation

FFKNIVTPRTPPPSQGK [MBP] showed an IFN-γ [1] of 64 pg/mL, an IL-2 [1] of 0 pg/mL and an IL-5 [1] of 0 pg/mL. For the same substance, the IL-10 [1] was 0 pg/mL, the IL-13 [1] was 82 pg/mL and the IL-22 [1] was 36 pg/mL. For the same substance, the TNF-α [1] was 9 pg/mL, the IFN-γ [2] was 0 pg/mL and the IL-2 [2] was 0 pg/mL. For the same substance, the IL-5 [2] was 0 pg/mL, the IL-10 [2] was 0 pg/mL and the IL-13 [2] was 26.77 pg/mL. For the same substance, the IL-22 [2] was 20.62 pg/mL, the TNF-α [2] was 0 pg/mL and the IFN-γ [3] was 20.69 pg/mL. For the same substance, the IL-2 [3] was 42.43 pg/mL, the IL-5 [3] was 0 pg/mL and the IL-10 [3] was 2.28 pg/mL and 2.3 pg/mL. The IL-13 [3] was 51.1 pg/mL, the IL-22 [3] was 107.54 pg/mL and the TNF-α [3] was 13.51 pg/mL. It also gave an IFN-γ [4] of 0 pg/mL, an IL-2 [4] of 0 pg/mL and an IL-5 [4] of 0 pg/mL. The IL-10 [4] was 0 pg/mL, the IL-13 [4] was 0.83 pg/mL and the IL-22 [4] was 0 pg/mL. The TNF-α [4] was 0 pg/mL.
glatiramer acetate [COP] showed an IFN-γ [5] of 158 pg/mL, an IL-2 [5] of 0 pg/mL and an IL-5 [5] of 0 pg/mL. It also gave an IL-10 [5] of 11 pg/mL, an IL-13 [5] of 129 pg/mL and an IL-22 [5] of 0 pg/mL. For the same substance, the TNF-α [5] was 11 pg/mL, the IFN-γ [6] was 256 pg/mL and the IL-2 [6] was 0 pg/mL. It also gave an IL-5 [6] of 0 pg/mL, an IL-10 [6] of 16 pg/mL and an IL-13 [6] of 254 pg/mL. It also gave an IL-22 [6] of 32 pg/mL, a TNF-α [6] of 42 pg/mL and an IFN-γ [7] of 585 pg/mL. For the same substance, the IL-2 [7] was 40 pg/mL, the IL-5 [7] was 0 pg/mL and the IL-10 [7] was 49 pg/mL. It also gave an IL-13 [7] of 837 pg/mL, an IL-22 [7] of 42 pg/mL and a TNF-α [7] of 42 pg/mL. For the same substance, the IFN-γ [8] was 416.83 pg/mL, the IL-1β [8] was “<= 0 pg/mL” and the IL-2 [8] was “<= 0 pg/mL”. The IL-5 [8] was 56.39 pg/mL, the IL-8 [8] was “<= 0 pg/mL” and the IL-10 [8] was 50.58 pg/mL. For the same substance, the TNF-α [8] was “<= 0 pg/mL”, the TNF-β [8] was 15.34 pg/mL and the IFN-γ [9] was 3626 pg/mL. The IL-1β [9] was 59 pg/mL, the IL-2 [9] was 0 pg/mL and the IL-4 [9] was 0 pg/mL. For the same substance, the IL-5 [9] was 398 pg/mL, the IL-10 [9] was 240 pg/mL and the TNF-α [9] was 22 pg/mL. It also gave a TNF-β [9] of 98 pg/mL, an IFN-γ [10] of 8.46 pg/mL and an IL-2 [10] of 0 pg/mL. The IL-5 [10] was 0 pg/mL, the IL-10 [10] was 2.99 pg/mL and the IL-13 [10] was 204.31 pg/mL. The IL-22 [10] was 83.01 pg/mL, the TNF-α [10] was 0 pg/mL and the IFN-γ [11] was 39.91 pg/mL. For the same substance, the IL-2 [11] was 19.65 pg/mL, the IL-5 [11] was 30.3 pg/mL and the IL-10 [11] was 2.83 pg/mL. The IL-13 [11] was 1028.23 pg/mL, the IL-22 [11] was 77.82 pg/mL and the TNF-α [11] was 0 pg/mL. For the same substance, the IFN-γ [12] was 119.12 pg/mL, the IL-2 [12] was 0 pg/mL and the IL-5 [12] was 314.77 pg/mL. It also gave an IL-10 [12] of 36.16 pg/mL, an IL-13 [12] of 2825.8 pg/mL and an IL-22 [12] of 143.57 pg/mL. For the same substance, the TNF-α [12] was 91.29 pg/mL, the IFN-γ [13] was 120 pg/mL and the IL-1β [13] was 130.9 pg/mL. The IL-2 [13] was 210.47 pg/mL, the IL-5 [13] was 38.13 pg/mL and the IL-8 [13] was 0.85 pg/mL. For the same substance, the IL-10 [13] was 45.09 pg/mL, the TNF-α [13] was 30.87 pg/mL and the TNF-β [13] was 23.15 pg/mL. The “IL-4, IL-6, or IL-12 detected” value (222-2D8, 222-1H12, 222-1C5, 222-2D2, Day 34 supernatants) was “Little or no”, the IFN-γ [14] was 3296 pg/mL and the IL-1β [14] was 2535 pg/mL. The IL-2 [14] was 0 pg/mL, the IL-4 [14] was 0 pg/mL and the IL-5 [14] was 1587 pg/mL. It also gave an IL-10 [14] of 100 pg/mL, a TNF-α [14] of 493 pg/mL and a TNF-β [14] of 267 pg/mL. For the same substance, the IFN-γ [15] was 53.73 pg/mL, the IL-2 [15] was 26.46 pg/mL and the IL-5 [15] was 0 pg/mL. The IL-10 [15] was 5.3 pg/mL, the IL-13 [15] was 165.79 pg/mL and the IL-22 [15] was 72.54 pg/mL. For the same substance, the TNF-α [15] was 25.28 pg/mL, the IFN-γ [16] was 163.61 pg/mL and the IL-2 [16] was 40.39 pg/mL. It also gave an IL-5 [16] of 0 pg/mL, an IL-10 [16] of 12.19 pg/mL and an IL-13 [16] of 1037.93 pg/mL. For the same substance, the IL-22 [16] was 40.37 pg/mL, the TNF-α [16] was 0 pg/mL and the IFN-γ [17] was 405.26 pg/mL. The IL-2 [17] was 0 pg/mL, the IL-5 [17] was 106.24 pg/mL and the IL-10 [17] was 22 pg/mL. For the same substance, the IL-13 [17] was 2046.94 pg/mL, the IL-22 [17] was 60.95 pg/mL and the TNF-α [17] was 333.22 pg/mL. For the same substance, the IFN-γ [18] was 0.65 pg/mL, the IL-2 [18] was 63.02 pg/mL and the IL-5 [18] was 0 pg/mL. For the same substance, the IL-10 [18] was 0 pg/mL, the IL-13 [18] was 47.69 pg/mL and the IL-22 [18] was 69.37 pg/mL. It also gave a TNF-α [18] of 0 pg/mL, an IFN-γ [19] of 0 pg/mL and an IL-2 [19] of 0 pg/mL. The IL-5 [19] was 0 pg/mL, the IL-10 [19] was 0 pg/mL and the IL-13 [19] was 105.51 pg/mL. For the same substance, the IL-22 [19] was 45.67 pg/mL, the TNF-α [19] was 0 pg/mL and the IFN-γ [20] was 47.35 pg/mL. The IL-2 [20] was 0 pg/mL, the IL-5 [20] was 119 pg/mL and the IL-10 [20] was 11.27 pg/mL. It also gave an IL-13 [20] of 1839.63 pg/mL, an IL-22 [20] of 19.45 pg/mL and a TNF-α [20] of 13.51 pg/mL. The “IFN-γ production” value (Line 105 (so in the source), Table 14 = 222-1C5, after appropriate dilution of supernatants) was “comparable amounts”.
